The structures appear in SMILES notation.

The target of assay [1] is CDK2/Cyclin E1 (Homo sapiens (Human), UniProt P24941). In words: CDK2/Cyclin E1 HTRF enzyme activity assay. Format: biochemical. To be noted: 1 mM ATP. Here is the method: Assays are conducted in white 384-well polystyrene plates in a final reaction volume of 8 μL. […] HTRF signals are read after 1 hour at room temperature on a PHERAstar FS plate reader (BMG Labtech). Data is analyzed with IDBS XLFit and GraphPad Prism 5.0 software using a three or four parameter dose response curve to determine IC50 for each compound.
(In TR-FRET formats the signal depends on donor and acceptor labels being close together.)

Assay [2] addresses JAK2 (Homo sapiens (Human), UniProt O60674). In words: JAK inhibitory activity assay (JAK2). Format: biochemical. As to conditions: 1 mM ATP. Here is the method: (§1) Compounds herein were tested for inhibitory activity of JAK targets according to the following in vitro assay described in Park et al., Analytical Biochemistry 1999, 269, 94-104. The catalytic domains of human JAK1 (a.a. 837-1142), Jak2 (a.a. 828-1132) and Jak3 (a.a. 781-1124) with an N-terminal His tag were expressed using baculovirus in insect cells and purified. The catalytic activity of JAK1 and JAK2 was assayed by measuring the phosphorylation of a biotinylated peptide. The phosphorylated peptide was detected by homogenous time resolved fluorescence (HTRF). Each enzyme reaction was carried out with or without test compound (11-point dilution), JAK enzyme, 500 nM peptide, adenosine triphosphate (ATP; 1 mM), and 2.0% dimethyl sulfoxide (DMSO) in assay buffer (50 mM Tris (pH 7.8) buffer, 100 mM NaCl, 5 mM DTT, and 0.1 mg/mL (0.01%) BSA). The peptide substrate (Biotin-[…]) was custom synthesized by Biosource International. Reactions were carried out at room temperature for 1 hour and then stopped with 10 μL 45 mM EDTA, 200 nM SA-APC, 4 nM Eu-Py20 in assay buffer (Perkin Elmer, Boston, Mass.). After incubation for 30 minutes at room temperature, the HTRF signal was measured on a PheraStar plate reader.

For assay [3], the target named is human JAK1 (Homo sapiens, UniProt P23458). In words: JAK inhibitory activity assay (JAK1). Type of assay: biochemical. As to conditions: 1 mM ATP. The procedure: as §1
Assay [4] deals with COV318 cells. In words: Cell cycle analysis by FACS after p16 knockdown. Type of assay: cell-based, human. As to conditions: 100 nM, 16 hours. The procedure:
To confirm the role of p16 in CDK2-sensitivity of CCNE1-amplified cells, COV318 cells were treated with control or p16-specific siRNA.
Bulk DNA was stained with DAPI. Compound-treated and DMSO treated control cells were acquired with CytoFlex (Beckman Coulter) and were analyzed using the FlowJo software. For cell cycle analysis of cells with siRNA knockdown, 72 hours after siRNA transfection, cells exposed to 10 μM EdU for 3 hours before detection of Click-iT Alexa Fluor® 647 azide kit.

Assay [5] concerns Rb phosphorylated on serine 780 in CCNE1 amplified COV318 cells. In words: CDK2 pRb (S780) HTRF cellular assay. As to conditions: Homo sapiens, read-out: IC50 in p-RB S780 HTRF cellular assay. Format: cell-based.

Sequence of JAK2 (O60674 828-1132): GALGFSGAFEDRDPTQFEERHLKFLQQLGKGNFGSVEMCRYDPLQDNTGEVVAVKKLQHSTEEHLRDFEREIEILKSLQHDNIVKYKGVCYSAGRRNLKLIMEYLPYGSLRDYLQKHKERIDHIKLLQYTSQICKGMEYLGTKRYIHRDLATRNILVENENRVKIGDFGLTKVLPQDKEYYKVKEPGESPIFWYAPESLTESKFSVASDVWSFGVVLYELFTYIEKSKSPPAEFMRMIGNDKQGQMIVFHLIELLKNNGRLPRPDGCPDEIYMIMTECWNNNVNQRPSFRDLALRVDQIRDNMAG

Take `CS(=O)(=O)N1CCC(Nc2ncc(C(F)(F)F)c(-c3cnn(CC(F)(F)F)c3)n2)CC1` [Example 10, N-(1-(Methylsulfonyl)piperidin-4-yl)-4-(1-(2,2,2-trifluoroethyl)-1H-pyrazol-4-yl)-5-(trifluoromethyl)pyrimidin-2-amine]: the IC50 (commonly the concentration that gives 50% inhibition) in assay [1] is less than 0.05 µM; in assay [2] it was not below 10 µM; in assay [3] it was not below 10 µM.

As to `C[C@]1(N)C[C@@H](n2cc(-c3nc(NC4CCN(S(=O)(=O)C5CC5)CC4)ncc3C(F)(F)F)cn2)C1` [Example 44, 4-(1-((1s,3s)-3-Amino-3-methylcyclobutyl)-1H-pyrazol-4-yl)-N-(1-(cyclopropylsulfonyl)piperidin-4-yl)-5-(trifluoromethyl)pyrimidin-2-amine], the IC50 in assay [1] is less than 0.05 µM; in assay [2], not below 10 µM; in assay [3] it was not below 10 µM.

On to `CO[C@H]1CC[C@H](n2cc(-c3nc(NC4CCN(S(=O)(=O)c5cn(C)cn5)CC4)ncc3C(F)(F)F)cn2)CC1` [Example 42, 4-(1-((1r,4r)-4-Methoxycyclohexyl)-1H-pyrazol-4-yl)-N-(1-((1-methyl-1H-imidazol-4-yl)sulfonyl)piperidin-4-yl)-5-(trifluoromethyl)pyrimidin-2-amine], for which the IC50 was less than 0.05 µM in assay [1], not below 5 µM in assay [2] and not below 5 µM in assay [3].

For `C[C@@]1(O)CCC[C@H]1n1c(=O)ccc2cnc(NC3CCN(S(C)(=O)=O)CC3)nc21` [Compound A, 8-((1R,2R)-2-hydroxy-2-methylcyclopentyl)-2-((1-(methylsulfonyl)piperidin-4-yl)amino)pyrido[2,3-d]pyrimidin-7(8H)-one], the “percentage of S phase cells” value was “significantly decreased” in assay [4] (control siRNA-treated COV318 cells) and “not significantly decreased” in assay [4] (p16 knocked down COV318 cells, compared to DMSO). For the same compound, in assay [5], the IC50 stood at 0.037 µM.

For the compound `CN1CCC(n2cc(-c3nc(NC4CCN(S(C)(=O)=O)CC4)ncc3C(F)(F)F)cn2)CC1` [Example 11, 4-(1-(1-Methylpiperidin-4-yl)-1H-pyrazol-4-yl)-N-(1-(methylsulfonyl)piperidin-4-yl)-5-(trifluoromethyl)pyrimidin-2-amine], the figures for the IC50 in assay [1], in assay [2] and in assay [3] were less than 0.05 µM, not below 10 µM and not below 10 µM, respectively.

With `CC(C)(C(N)=O)n1cc(-c2nc(NC3CCN(S(=O)(=O)c4ccccn4)CC3)ncc2C(F)(F)F)cn1` [Example 96, 2-Methyl-2-(4-(2-((1-(pyridin-2-ylsulfonyl)piperidin-4-yl)amino)-5-(trifluoromethyl)pyrimidin-4-yl)-1H-pyrazol-1-yl)propanamide], the figures for the IC50 in assay [1], in assay [2] and in assay [3] were less than 0.05 µM, not below 10 µM and not below 10 µM, respectively.

`CC(C)(O)Cn1cc(-c2nc(NC3CCN(S(=O)(=O)C4CC4)CC3)ncc2C#N)cn1` [Example 54, 2-((1-(Cyclopropylsulfonyl)piperidin-4-yl)amino)-4-(1-(2-hydroxy-2-methylpropyl)-1H-pyrazol-4-yl)pyrimidine-5-carbonitrile]: the results for the 50% inhibitory concentration (IC50) in assay [1], in assay [2] and in assay [3] were less than 0.05 µM, not below 10 µM and not below 10 µM, respectively.

As for `CN1CCN(Cc2ccc(-n3cc(-c4nc(NC5CCN(S(C)(=O)=O)CC5)ncc4C#N)cn3)c(Cl)c2)CC1` [Example 99, 4-(1-(2-Chloro-4-((4-methylpiperazin-1-yl)methyl)phenyl)-1H-pyrazol-4-yl)-2-((1-(methylsulfonyl)piperidin-4-yl)amino)pyrimidine-5-carbonitrile], the IC50 is less than 0.05 µM in assay [1], not below 10 µM in assay [2] and not below 10 µM in assay [3].

As for `CC(C)(O)Cn1cc(-c2nc(NC3CCN(S(=O)(=O)C4CC4)CC3)ncc2C(F)(F)F)cn1` [Example 51, 1-(4-(2-((1-(Cyclopropylsulfonyl)piperidin-4-yl)amino)-5-(trifluoromethyl)pyrimidin-4-yl)-1H-pyrazol-1-yl)-2-methylpropan-2-ol], the IC50 in assay [1] is less than 0.05 µM; in assay [2], not below 10 µM; in assay [3], not below 10 µM.

Turning to `CNCc1ccc(-n2cc(-c3nc(NC4CCN(S(C)(=O)=O)CC4)ncc3C(F)(F)F)cn2)c(C)c1` [Example 41, 4-(1-(2-Methyl-4-((methylamino)methyl)phenyl)-1H-pyrazol-4-yl)-N-(1-(methylsulfonyl)piperidin-4-yl)-5-(trifluoromethyl)pyrimidin-2-amine], the IC50 was less than 0.05 µM in assay [1], not below 10 µM in assay [2] and not below 10 µM in assay [3].

In the case of `Cn1cc(S(=O)(=O)N2CCC(Nc3ncc(C(F)(F)F)c(-c4cnn(CC(F)(F)F)c4)n3)CC2)cn1` [Example 1, N-(1-((1-Methyl-1H-pyrazol-4-yl)sulfonyl)piperidin-4-yl)-4-(1-(2,2,2-trifluoroethyl)-1H-pyrazol-4-yl)-5-(trifluoromethyl)pyrimidin-2-amine], the figures for the IC50 in assay [1], in assay [2] and in assay [3] were less than 0.05 µM, not below 10 µM and not below 10 µM, respectively.

In the case of `CC(=O)N1CC[C@H](NCc2ccc(-n3cc(-c4nc(NC5CCN(S(C)(=O)=O)CC5)ncc4C#N)cn3)c(Cl)c2)C1` [Example 169, (S)-4-(1-(4-(((1-Acetylpyrrolidin-3-yl)amino)methyl)-2-chlorophenyl)-1H-pyrazol-4-yl)-2-((1-(methylsulfonyl)piperidin-4-yl)amino)pyrimidine-5-carbonitrile], the IC50 in assay [1] is less than 0.05 µM.

`CC(C)(O)Cn1cc(-c2nc(NC3CCN(S(=O)(=O)CCCCN4CCCCC4)CC3)ncc2C#N)cn1` [Example 218, 4-(1-(2-Hydroxy-2-methylpropyl)-1H-pyrazol-4-yl)-2-((1-((4-(piperidin-1-yl)butyl)sulfonyl)piperidin-4-yl)amino)pyrimidine-5-carbonitrile] showed an IC50 in assay [1] of less than 0.05 µM.

`O=S(=O)(c1cn[nH]c1)N1CCC(Nc2ncc(C(F)(F)F)c(-c3cnn(CC(F)(F)F)c3)n2)CC1` [Example 2, N-(1-((1H-Pyrazol-4-yl)sulfonyl)piperidin-4-yl)-4-(1-(2,2,2-trifluoroethyl)-1H-pyrazol-4-yl)-5-(trifluoromethyl)pyrimidin-2-amine] showed an IC50 in assay [1] of less than 0.05 µM.

In assay [1], `CN1CCN(Cc2ccc(-n3cc(-c4nc(NC5CCN(S(=O)(=O)c6cn(C)cn6)CC5)ncc4Cl)cn3)c(Cl)c2)CC1` [Example 108, 5-Chloro-4-(1-(2-chloro-4-((4-methylpiperazin-1-yl)methyl)phenyl)-1H-pyrazol-4-yl)-N-(1-((1-methyl-1H-imidazol-4-yl)sulfonyl)piperidin-4-yl)pyrimidin-2-amine] showed an IC50 of less than 0.05 µM.

Take `CC(O)(Cn1cc(-c2nc(NC3CCN(S(C)(=O)=O)CC3)ncc2C(F)(F)F)cn1)C(F)(F)F` (racemic) [Example 95, (±)-1,1,1-Trifluoro-2-methyl-3-(4-(2-((1-(methylsulfonyl)piperidin-4-yl)amino)-5-(trifluoromethyl)pyrimidin-4-yl)-1H-pyrazol-1-yl) propan-2-ol]: the IC50 in assay [1] was less than 0.05 µM.

In assay [1], `Cn1cnc(S(=O)(=O)N2CCC(Nc3ncc(C(F)(F)F)c(-c4cnn(-c5ccnc(N)c5Cl)c4)n3)CC2)c1` [Example 36, 4-(1-(2-Amino-3-chloropyridin-4-yl)-1H-pyrazol-4-yl)-N-(1-((1-methyl-1H-imidazol-4-yl)sulfonyl)piperidin-4-yl)-5-(trifluoromethyl)pyrimidin-2-amine] displayed an IC50 of less than 0.05 µM.

`CCN(CC)CCCCS(=O)(=O)N1CCC(Nc2ncc(C#N)c(-c3cnn(CC(C)(C)O)c3)n2)CC1` [Example 216, 2-((1-((4-(Diethylamino)butyl)sulfonyl)piperidin-4-yl)amino)-4-(1-(2-hydroxy-2-methylpropyl)-1H-pyrazol-4-yl)pyrimidine-5-carbonitrile]: the IC50 in assay [1] was less than 0.05 µM.

`Cc1c(-n2cc(-c3nc(NC4CCN(S(=O)(=O)c5cn(C)cn5)CC4)ncc3C(F)(F)F)cn2)ccnc1N` [Example 35, 4-(1-(2-Amino-3-methylpyridin-4-yl)-1H-pyrazol-4-yl)-N-(1-((1-methyl-1H-imidazol-4-yl)sulfonyl)piperidin-4-yl)-5-(trifluoromethyl)pyrimidin-2-amine] gave an IC50 in assay [1] of less than 0.05 µM.
